Experimental findings from patent publication US11708344B2, “Flavone derivatives for the treatment and prophylaxis of hepatitis B virus disease” (Hoffmann-La Roche Inc., priority 2018, dated 2023) are described below.

For orientation: IC50 means the concentration that gives 50% inhibition.

One assay concerns HBeAg (surrogate marker for cccDNA) in HepDES19 cells. The experiment in a line: Engineered HepDES19 primary screen assay (HBeAg ELISA). The assay is classed as cell-based, HBV. The conditions noted are these: HepDES19 cells, 5 days compound incubation, HBeAg ELISA; read-out: IC50 (HBeAg level, HepDES19 primary screen assay). From the text: The assay was employed to screen for novel cccDNA inhibitors. HepDES19 is a cccDNA-producing cell line. In this cell line, HBeAg in the cell culture supernatant as surrogate marker, as HBeAg production depends on cccDNA level and activity. HepDES19 is an engineered cell line which contains a 1.1 unit length HBV genome, and pgRNA transcription from the transgene is controlled by Tetracycline (Tet). In the absence of Tet, pgRNA transcription will be induced, but HBV e antigen (HBeAg) could not be produced from this pgRNA due to very short leader sequence before the HBeAg start codon and the start codon is disrupted. Only after cccDNA is formed, the missing leader sequence and start codon mutation would be restored from the 3′-terminal redundancy of pgRNA, and then HBeAg could be synthesized. Therefore, HBeAg could be used as a surrogate marker for cccDNA (Zhou, T. et al., Antiviral Res. (2006), 72(2), 116-124; Guo, H. et al., J. Virol. (2007), 81(22), 12472-12484).
HepDES19 cells were seeded at 2×10^6 cells per T150 flask and cultured with the culture medium (Dulbecco's Modified Eagle Medium: Nutrient Mixture F-12 [DMEM-F12, Gibco Cat. 11320-82], 10% Fetal Bovine Serum [FBS, Clontech Cat. 631101], 0.1 mM Non-Essential Amino Acids Solution [NEAA, Gibco Cat. 11140-050], 50 μg/mL Penicillin-Streptomycin [PS, Invitrogen Cat. 15140-163], 500 μg/mL Geneticin [G418, Invitrogen Cat. 10131-027]) containing 3 μg/mL Tet (Sigma, Cat. 87128) for 5 days. Cells were then seeded at 4×10^6 cells per T150 in the same culture medium as described above in the absence of Tet for 8 days. Cells were then harvested and frozen at density of 2×10^6 cells per mL. For compound testing, the frozen cells were thawed and seeded into 96-well plates at a density of 6×10^4 cells per well. At 24 hours after seeding, half log serial dilutions of compounds made with Dimethyl sulfoxide (DMSO, Sigma, Cat. D2650) were further diluted with the same culture medium as described above before they were added to the cells to reach desired final compound concentrations and 1% DMSO concentration. Plates were then incubated at 37° C. for another 5 days before measurement of HBeAg level and cell viability. […] HBeAg level were measured with enzyme-linked immunosorbent assay (ELISA) kit (Shanghai Kehua Diagnostic Medical Products Co., Ltd). Cell viability was assessed using Cell Counting Kit-8 (DonJindo, Cat. CK04-20). IC50 values were derived from the dose-response curve using 4 parameter logistic curve fit method.
The compounds of the present invention were tested for their capacity to inhibit extracellular HBeAg level as described herein.
In general terms: ELISA stands for enzyme-linked immunosorbent assay.
On to `O=c1cc(-c2ccc(Br)cc2OCCO[C@H]2C[C@H](C(=O)O)C2)oc2c(Cl)ccc(C(F)(F)F)c12` [Example C049-B], for which the IC50 is 0.103 µM.

The same assay, now with this note: Hepatitis B virus, HepDES19, 120 h, read-out: IC50 (HBeAg level, HepDES19 primary screen assay), HepDES19 cells, 5 days compound incubation, HBeAg ELISA.
On to `COc1cccc(S(=O)(=O)N2C[C@@H](Oc3cc(C(F)(F)F)ccc3-c3cc(=O)c4cccc(Cl)c4o3)C[C@H]2C(=O)O)c1` [Example B079], for which the IC50 worked out at 1.52 µM.
For `COc1cc(O[C@H]2C[C@@H](C(=O)O)N(S(=O)(=O)c3ccccc3)C2)c(-c2cc(=O)c3cccc(Cl)c3o2)cc1OC` [Example B081], the concentration for half-maximal inhibition (IC50) is 3.11 µM.
In the case of `O=C(O)[C@@H]1C[C@H](Oc2cc(OC(F)(F)F)ccc2-c2cc(=O)c3cccc(Cl)c3o2)CN1S(=O)(=O)c1ccccc1` [Example B085, (2S,4S)-1-(benzenesulfonyl)-4-[2-(8-chloro-4-oxo-chromen-2-yl)-5-(trifluoromethoxy)phenoxy]pyrrolidine-2-carboxylic acid], the IC50 amounted to 4.57 µM.
Still for that read-out and setting: then `O=c1cc(-c2ccc(Br)cc2OCCO[C@H]2C[C@H](C(=O)O)C2)oc2c(Cl)cccc12` [Example C003-B, tram-3-[2-[5-bromo-2-(8-chloro-4-oxo-chromen-2-yl)phenoxy]ethoxy]cyclobutanecarboxylic acid], with 1.34 µM; and `O=C(O)C1CC(OCCOc2cc(Cl)ccc2-c2cc(=O)c3cccc(Cl)c3o2)C1` (stereo not drawn) [Example C004, 3-[2-[5-chloro-2-(8-chloro-4-oxo-chromen-2-yl)phenoxy]ethoxy]cyclobutanecarboxylic acid], with 1.32 µM; and `Cc1ccc2c(=O)cc(-c3ccccc3OCCO[C@H]3C[C@@H](C(=O)O)C3)oc2c1Cl` [Example C029-A, Cis-3-[2-[2-(8-chloro-7-methyl-4-oxo-chromen-2-yl)phenoxy]ethoxy]cyclobutanecarboxylic acid], with 3.36 µM.
Still for that read-out and setting: then `Cc1ccc2c(=O)cc(-c3ccccc3OCCO[C@H]3C[C@H](C(=O)O)C3)oc2c1Cl` [Example C029-B, Trans-3-[2-[2-(8-chloro-7-methyl-4-oxo-chromen-2-yl)phenoxy]ethoxy]cyclobutanecarboxylic acid], with 1.32 µM; and `O=c1cc(-c2ccc(Br)cc2OCCO[C@H]2C[C@@H](C(=O)O)C2)oc2c(Cl)c(F)ccc12` [Example C030-A, Cis-3-[2-[5-bromo-2-(8-chloro-7-fluoro-4-oxo-chromen-2-yl)phenoxy]ethoxy]cyclobutanecarboxylic acid], with 1.37 µM; and `O=c1cc(-c2ccc(Br)cc2OCCO[C@H]2C[C@H](C(=O)O)C2)oc2c(Cl)c(F)ccc12` [Example C030-B, Trans-3-[2-[5-bromo-2-(8-chloro-7-fluoro-4-oxo-chromen-2-yl)phenoxy]ethoxy]cyclobutanecarboxylic acid], with 12.8 µM.
Still for that read-out and setting: to `COc1cc(OCCO[C@H]2C[C@H](C(=O)O)C2)c(-c2cc(=O)c3cccc(Cl)c3o2)cc1Br` [Example C040-B, Trans-3-[2-[4-bromo-2-(8-chloro-4-oxo-chromen-2-yl)-5-methoxy-phenoxy]ethoxy]cyclobutanecarboxylic acid] belongs 17.1 µM; to `COc1cc(OCCO[C@H]2C[C@H](C(=O)O)C2)c(-c2cc(=O)c3cccc(Cl)c3o2)cc1C` [Example C041-B, Trans-3-[2-[2-(8-chloro-4-oxo-chromen-2-yl)-5-methoxy-4-methyl-phenoxy]ethoxy]cyclobutanecarboxylic acid], 9.64 µM; to `O=c1cc(-c2ccc(Br)cc2OCCO[C@H]2C[C@@H](C(=O)O)C2)oc2c(Cl)c(C(F)(F)F)ccc12` [Example C048-A, Cis-3-[2-[5-bromo-2-[8-chloro-4-oxo-7-(trifluoromethyl)chromen-2-yl]phenoxy]ethoxy]cyclobutanecarboxylic acid], 5.12 µM.
As to `O=c1cc(-c2cc(Br)ccc2OCCO[C@H]2C[C@H](C(=O)O)C2)oc2c(Cl)cc(F)cc12` [Example C053-B, Trans-3-[2-[4-bromo-2-(8-chloro-6-fluoro-4-oxo-chromen-2-yl)phenoxy]ethoxy]cyclobutanecarboxylic acid], the 50% inhibitory concentration (IC50) was 5.59 µM.
Consider `O=c1cc(-c2ccc(Br)cc2OCCCO[C@H]2C[C@H](C(=O)O)C2)oc2c(Cl)cccc12` [Example C056-B, Trans-3-[3-[5-bromo-2-(8-chloro-4-oxo-chromen-2-yl)phenoxy]propoxy]cyclobutanecarboxylic acid], for which the IC50 came to 2.18 µM.
Still for that read-out and setting: then `O=c1cc(-c2ccccc2OCCO[C@H]2C[C@@H](C(=O)O)C2)oc2c(Cl)c(C3CC3)ccc12` [Example C058-A, Cis-3-[2-[2-(8-chloro-7-cyclopropyl-4-oxo-chromen-2-yl)phenoxy]ethoxy]cyclobutanecarboxylic acid], with 5.1 µM; and `O=C(O)C1CC(OCCOc2cnccc2-c2cc(=O)c3cccc(Cl)c3o2)C1` (stereo not drawn) [Example C061, 3-[2-[[4-(8-chloro-4-oxo-chromen-2-yl)-3-pyridyl]oxy]ethoxy]cyclobutanecarboxylic acid], with 3.35 µM; and `COC(=O)C1CC(OCCOc2cc(N3CCOC3=O)ccc2-c2cc(=O)c3cccc(Cl)c3o2)C1` (stereo not drawn) [Example C062a, methyl 3-[2-[2-(8-chloro-4-oxo-chromen-2-yl)-5-(2-oxooxazolidin-3-yl)phenoxy]ethoxy]cyclobutanecarboxylate], with 2.45 µM.
On the same count and under the same terms, to `O=C1CCCN1c1ccc(-c2cc(=O)c3cccc(Cl)c3o2)c(OCCO[C@H]2C[C@H](C(=O)O)C2)c1` [Example C063-B, Trans-3-[2-[2-(8-chloro-4-oxo-chromen-2-yl)-5-(2-oxopyrrolidin-1-yl)phenoxy]ethoxy]cyclobutanecarboxylic acid] belongs 14.9 µM; to `CSc1ccc(-c2cc(=O)c3cccc(Cl)c3o2)c(OCCO[C@H]2C[C@@H](C(=O)O)C2)c1` [Example C064-A, Cis-3-[2-[2-(8-chloro-4-oxo-chromen-2-yl)-5-methylsulfanyl-phenoxy]ethoxy]cyclobutanecarboxylic acid], 1.94 µM; to `CSc1ccc(-c2cc(=O)c3cccc(Cl)c3o2)c(OCCO[C@H]2C[C@H](C(=O)O)C2)c1` [Example C064-B, trans-3-[2-[2-(8-chloro-4-oxo-chromen-2-yl)-5-methylsulfanyl-phenoxy]ethoxy]cyclobutanecarboxylic acid], 2.93 µM.
Same read-out and setting: to `COC(=O)[C@H]1C[C@H](OCCOc2cc(S(C)(=O)=O)ccc2-c2cc(=O)c3cccc(Cl)c3o2)C1` [Example C065-B, Trans-methyl 3-[2-[2-(8-chloro-4-oxo-chromen-2-yl)-5-methylsulfonyl-phenoxy]ethoxy]cyclobutanecarboxylate] belongs 12.2 µM; to `O=c1cc(-c2ccc(-c3nccs3)cc2OCCO[C@H]2C[C@@H](C(=O)O)C2)oc2c(Cl)cccc12` [Example C066-A, Cis-3-[2-[2-(8-chloro-4-oxo-chromen-2-yl)-5-thiazol-2-yl-phenoxy]ethoxy]cyclobutanecarboxylic acid], 1.02 µM.
On to `O=c1cc(-c2ccc(-c3nccs3)cc2OCCO[C@H]2C[C@H](C(=O)O)C2)oc2c(Cl)cccc12` [Example C066-B, Trans-3-[2-[2-(8-chloro-4-oxo-chromen-2-yl)-5-thiazol-2-yl-phenoxy]ethoxy]cyclobutanecarboxylic acid], for which the half-inhibitory concentration (IC50) amounted to 1.02 µM.
On the same count and under the same terms, to `O=c1cc(-c2ccc(C3CC3)cc2OCCO[C@H]2C[C@@H](C(=O)O)C2)oc2c(Cl)cccc12` [Example C069-A, Cis-3-[2-[2-(8-chloro-4-oxo-chromen-2-yl)-5-cyclopropyl-phenoxy]ethoxy]cyclobutanecarboxylic acid] belongs 5.09 µM; to `O=c1cc(-c2ccc(C3CC3)cc2OCCO[C@H]2C[C@H](C(=O)O)C2)oc2c(Cl)cccc12` [Example C069-B, Trans-3-[2-[2-(8-chloro-4-oxo-chromen-2-yl)-5-cyclopropyl-phenoxy]ethoxy]cyclobutanecarboxylic acid], 1.29 µM.
Still for that read-out and setting: to `O=c1cc(-c2cc(OC(F)(F)F)c(O)cc2OCCO[C@H]2C[C@@H](C(=O)O)C2)oc2c(Cl)cccc12` [Example C090, Cis-3-[2-[2-(8-chloro-4-oxo-chromen-2-yl)-5-hydroxy-4-(trifluoromethoxy)phenoxy]ethoxy]cyclobutanecarboxylic acid] belongs 6.57 µM.
